Experimental data published in article PMC9463526 (Journal of Pharmaceutical Analysis, 2022).
Where two headings read alike, the source gives them in different places.

Key:
[1] = Analyte stability in brain homogenate; type: physicochemical, human; conditions: for Freeze-thaw stability, Accuracy / Freeze-thaw stability, Mean concentration / Freeze-thaw stability, Difference: 3 cycles; for Freeze-thaw stability, Difference / Benchtop stability, Difference / Processed sample stability, Difference / Autosampler stability (5 °C), Difference / Long-term stability (−20 °C), Difference: vs freshly processed QC; for Benchtop stability, Accuracy / Benchtop stability, Mean concentration / Benchtop stability, Difference: 6 h; for Processed sample stability, Accuracy / Processed sample stability, Mean concentration / Processed sample stability, Difference: 22 h; for Autosampler stability (5 °C), Accuracy / Autosampler stability (5 °C), Mean concentration / Autosampler stability (5 °C), Difference: 96 h; for Long-term stability (−20 °C), Accuracy / Long-term stability (−20 °C), Mean concentration / Long-term stability (−20 °C), Difference: 39 days
In short: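 Stability of the analytes was examined in brain homogenate under several storage and processing conditions. QC stability samples were quantified against freshly prepared calibration standards and QC samples, and the percentage difference from freshly processed QC was calculated. Analytes counted as stable when accuracy at each level stayed within ±15.0% of nominal and the difference from comparison QCs was within ±15.0%.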

[2] = Levels in intraoperatively collected CSF of GBM patients; type: in vivo; conditions: human, po, five GBM patients, oral LY3214996 200 mg once daily and abemaciclib 150 mg twice daily for 5 days, intraoperative CSF
Protocol: Blank brain and clinical brain tumor tissue homogenates were prepared at 1:9 (m/V) ratio with PBS. The samples were homogenized at a speed of 6.00 m/s for 40 s for three cycles using a Bead Ruptor Elite homogenizer (Omni International, Kennesaw, GA, USA). Plasma was used as a surrogate matrix when preparing calibration curves for brain and brain tumor homogenates and CSF as well as for the PBS fraction after sample dialysis. To minimize matrix differences, all plasma samples were spiked with PBS, while all non-plasma samples were spiked with plasma. Extraction of the analyte and IS was facilitated by protein precipitation using methanol-containing IS precipitation solution. Samples (70 μL) spiked with PBS or plasma were precipitated using 400 μL of IS precipitation solution. After centrifugation at 12,000 r/min for 10 min at 4 °C, the supernatant was transferred for LC-MS/MS analysis.
The validated bioanalytical method was employed to investigate analytes pharmacokinetics in the plasma, brain tumor, and CSF in GBM patients (ClinicalTrials.gov identifier: NCT04391595). The protocol was reviewed and approved by the Institutional Review Board of the Barrow Neurological Institute, St. Joseph's Hospital and Medical Center (Phoenix, AZ, USA). All patients enrolled in the trial provided written informed consent. […] Blood, CSF, and GBM tissue (including gadolinium-contrast enhancing and non-enhancing regions) samples were obtained intra-operatively from each patient on the […] on the planned operation day. Blood was centrifuged at 4 °C and 3,000 r/min for 10 min; plasma was subsequently collected. Brain tumors were resected 7–9 h after the last dose was administered. Once resected, the tissue samples were rinsed with PBS, paper dried, and freshly frozen in liquid nitrogen. The samples were then stored at −80 °C in a freezer for later analysis.

[3] = Equilibrium dialysis, fraction unbound in plasma; type: in vitro ADME, human; conditions: pH 7.4, 16 h equilibrium dialysis
In short: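 Human plasma dialysed against PBS pH 7.4 across a 10 kDa regenerated cellulose membrane, with equilibrium time optimized over 2–24 h at 20 and 200 nM. fu taken as post-dialysis buffer/plasma concentration ratio; triplicates, at least three repeats, recovery checked.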

[4] = Equilibrium dialysis, fraction unbound in patient brain tumor tissue; type: in vitro ADME; conditions: human, five patients, 16 h equilibrium dialysis
In short: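 Fraction unbound determined by equilibrium dialysis (10 kDa membrane) of patient brain tumor tissue homogenate against PBS pH 7.4 for 16 h; fu,hom = post-dialysis PBS/homogenate concentration, converted to fu,tissue using the homogenate dilution factor. Tumors were resected 7–9 h post last dose; mean of five patients.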

[5] = Analyte stability in human plasma; type: physicochemical; conditions: for Freeze-thaw stability, Accuracy / Freeze-thaw stability, Mean concentration / Freeze-thaw stability, Difference: 3 cycles; for Freeze-thaw stability, Difference / Benchtop stability, Difference / Processed sample stability, Difference / Autosampler stability (5 °C), Difference / Long-term stability (−20 °C), Difference: vs freshly processed QC; for Benchtop stability, Accuracy / Benchtop stability, Mean concentration / Benchtop stability, Difference: 19 h; for Processed sample stability, Accuracy / Processed sample stability, Mean concentration / Processed sample stability, Difference: 23 h; for Autosampler stability (5 °C), Accuracy / Autosampler stability (5 °C), Mean concentration / Autosampler stability (5 °C), Difference: 112 h; for Long-term stability (−20 °C), Accuracy / Long-term stability (−20 °C), Mean concentration / Long-term stability (−20 °C), Difference: 27 days
Protocol: The stability of the analytes was studied under various storage and processing conditions. […] Short- and long-term stability studies of all analytes were conducted in human blank plasma and brain homogenate under several storage conditions. Analyte stability in biological matrices was analyzed using freshly prepared calibration standards and QC samples. The percentage difference between the stability and freshly processed QC was also assessed. Re-injection reproducibility was evaluated within the sample stability period in the autosampler. Analytes were considered stable if the accuracy at each level was ±15.0% of the nominal value. Additionally, the difference from corresponding comparison QC samples must be within ±15.0%.

## CCN1CCN(Cc2ccc(Nc3ncc(F)c(-c4cc(F)c5nc(CO)n(C(C)C)c5c4)n3)nc2)CC1 [M20]
[1]; HQC 400.0 nM
  Freeze-thaw stability, Accuracy: 108.7%
  Freeze-thaw stability, Mean concentration: 434.9 nM
  Freeze-thaw stability, Difference: 1.4%
  Benchtop stability, Accuracy: 93.7%
  Benchtop stability, Mean concentration: 375.0 nM
  Benchtop stability, Difference: −4.4%
  Processed sample stability, Accuracy: 97.8%
  Processed sample stability, Mean concentration: 391.1 nM
  Processed sample stability, Difference: −0.2%
  Autosampler stability (5 °C), Accuracy: 100.3%
  Autosampler stability (5 °C), Mean concentration: 401.3 nM
  Autosampler stability (5 °C), Difference: 2.7%
  Long-term stability (−20 °C), Accuracy: 112.0%
  Long-term stability (−20 °C), Mean concentration: 448.1 nM
  Long-term stability (−20 °C), Difference: 4.5%
[1]; LQC 0.6 nM
  Freeze-thaw stability, Accuracy: 108.5%
  Freeze-thaw stability, Mean concentration: 0.651 nM
  Freeze-thaw stability, Difference: −1.5%
  Benchtop stability, Accuracy: 100.0%
  Benchtop stability, Mean concentration: 0.6 nM
  Benchtop stability, Difference: 2.3%
  Processed sample stability, Accuracy: 100.5%
  Processed sample stability, Mean concentration: 0.603 nM
  Processed sample stability, Difference: 2.7%
  Autosampler stability (5 °C), Accuracy: 101.9%
  Autosampler stability (5 °C), Mean concentration: 0.612 nM
  Autosampler stability (5 °C), Difference: 10.3%
  Long-term stability (−20 °C), Accuracy: 105.9%
  Long-term stability (−20 °C), Mean concentration: 0.635 nM
  Long-term stability (−20 °C), Difference: −3.9%
[2]; read-out: Level in CSF (range)
  concentration at 6 day (intra-operative): 0.0031 to 0.0581 µM
[2]; read-out: Median level in CSF
  concentration at 6 day (intra-operative): 0.0127 µM
[3]; human, plasma of five GBM patients, read-out: Fraction unbound (fu), Plasma (patients)
  fraction unbound at 16 h: 0.023
[3]; pooled human plasma spiked at 20 and 200 nM, read-out: Fraction unbound (fu), Plasma (pooled)
  fraction unbound at 16 h: 0.024
[4]; pH 7.4, gadolinium contrast enhancing GBM region, read-out: Fraction unbound (fu), GBM (E)
  fraction unbound at 16 h: 0.022
[4]; pH 7.4, gadolinium contrast non-enhancing GBM region, read-out: Fraction unbound (fu), GBM (NE)
  fraction unbound at 16 h: 0.017
[5]; HQC 400.0 nM
  Freeze-thaw stability, Accuracy: 99.6%
  Freeze-thaw stability, Mean concentration: 398.6 nM
  Freeze-thaw stability, Difference: 0.3%
  Benchtop stability, Accuracy: 102.2%
  Benchtop stability, Mean concentration: 408.9 nM
  Benchtop stability, Difference: 2.8%
  Processed sample stability, Accuracy: 101.4%
  Processed sample stability, Mean concentration: 405.7 nM
  Processed sample stability, Difference: 2.7%
  Autosampler stability (5 °C), Accuracy: 95.6%
  Autosampler stability (5 °C), Mean concentration: 382.5 nM
  Autosampler stability (5 °C), Difference: −2%
  Long-term stability (−20 °C), Accuracy: 104.7%
  Long-term stability (−20 °C), Mean concentration: 418.8 nM
  Long-term stability (−20 °C), Difference: 2.7%
[5]; LQC 0.6 nM
  Freeze-thaw stability, Accuracy: 97.2%
  Freeze-thaw stability, Mean concentration: 0.583 nM
  Freeze-thaw stability, Difference: 2.9%
  Benchtop stability, Accuracy: 99.9%
  Benchtop stability, Mean concentration: 0.599 nM
  Benchtop stability, Difference: 3.5%
  Processed sample stability, Accuracy: 88.9%
  Processed sample stability, Mean concentration: 0.534 nM
  Processed sample stability, Difference: −2%
  Autosampler stability (5 °C), Accuracy: 95.1%
  Autosampler stability (5 °C), Mean concentration: 0.57 nM
  Autosampler stability (5 °C), Difference: 1.3%
  Long-term stability (−20 °C), Accuracy: 101.7%
  Long-term stability (−20 °C), Mean concentration: 0.61 nM
  Long-term stability (−20 °C), Difference: −4%
